Test results from the supplement of paper PMC13380429.

What was measured:
Details in all cases: 72 h
Vero E6 [1] = test: relative viability EC50 (midpoint between 100% and the lowest measured viability); higher = less toxic
U2OS [2] = test: as above
Calu-3 [3] = test: as above
HepG2 [4] = test: as above
Caco-2 [5] = test: drug sensitivity score (DSS) for viability; higher = more toxic; extreme values may be limits of the assay
Vero E6 [6] = test: as above
U2OS [7] = test: as above
Calu-3 [8] = test: as above
HepG2 [9] = test: as above
Caco-2 [10] = test: cell viability relative to DMSO; higher = less toxic
Vero E6 [11] = test: as above
U2OS [12] = test: as above
Calu-3 [13] = test: as above
HepG2 [14] = test: as above
Caco-2 [15] = test: relative viability EC50 (midpoint between 100% and the lowest measured viability); higher = less toxic

SMILES	relative viability EC50 (Vero E6 [1]) [µM]	relative viability EC50 (U2OS [2]) [µM]	relative viability EC50 (Calu-3 [3]) [µM]	relative viability EC50 (HepG2 [4]) [µM]	drug sensitivity score (Caco-2 [5])	drug sensitivity score (Vero E6 [6])	drug sensitivity score (U2OS [7])	drug sensitivity score (Calu-3 [8])	drug sensitivity score (HepG2 [9])	cell viability (Caco-2 [10]; 1 nM) [%]	cell viability (Caco-2 [10]; 10 nM) [%]	cell viability (Caco-2 [10]; 100 nM) [%]	cell viability (Caco-2 [10]; 1000 nM) [%]	cell viability (Caco-2 [10]; 10000 nM) [%]	cell viability (Vero E6 [11]; 1 nM) [%]	cell viability (Vero E6 [11]; 10 nM) [%]	cell viability (Vero E6 [11]; 100 nM) [%]	cell viability (Vero E6 [11]; 1000 nM) [%]	cell viability (Vero E6 [11]; 10000 nM) [%]	cell viability (U2OS [12]; 1 nM) [%]	cell viability (U2OS [12]; 10 nM) [%]	cell viability (U2OS [12]; 100 nM) [%]	cell viability (U2OS [12]; 1000 nM) [%]	cell viability (U2OS [12]; 10000 nM) [%]	cell viability (Calu-3 [13]; 1 nM) [%]	cell viability (Calu-3 [13]; 10 nM) [%]	cell viability (Calu-3 [13]; 100 nM) [%]	cell viability (Calu-3 [13]; 1000 nM) [%]	cell viability (Calu-3 [13]; 10000 nM) [%]	cell viability (HepG2 [14]; 1 nM) [%]	cell viability (HepG2 [14]; 10 nM) [%]	cell viability (HepG2 [14]; 100 nM) [%]	cell viability (HepG2 [14]; 1000 nM) [%]	cell viability (HepG2 [14]; 10000 nM) [%]	relative viability EC50 (Caco-2 [15]) [µM]
COc1cc2ncnc(Nc3ccc(F)c(Cl)c3)c2cc1NC(=O)/C=C/CN1CCCCC1 [dacomitinib]	0.0579	2.39	0.027	2.79	5.6	15.8	3.9	23.8	3.8	95.3	89.6	90.6	69.3	71.2	99.6	92.7	59.5	48.2	39.5	94.3	97.3	94.5	94.7	43.6	83.5	73.7	40.8	32.1	17	104	97.8	91.3	97	37.8	–
CC1=C(CCC(=O)O)c2cc3[nH]c(cc4nc(cc5[nH]c(cc1n2)c(C)c5C(C)O)C(C)=C4C(C)O)c(C)c3CCC(=O)O (stereo not drawn) [hematoporphyrin]	> 10	> 10	> 10	> 10	0.8	0.4	0	0.6	0.8	109	96.3	96.6	105	74.1	106	106	98.8	104	80.3	100	96.7	102	93.6	94.5	97.8	89	87.2	94.5	88.1	103	99.9	91.3	99.1	79.2	–
OCc1c[nH]c2ccccc12 [indole-3-carbinol]	> 10	> 10	–	> 10	0.2	0	0	–	0	103	103	99	97.8	87.4	104	97.1	93.1	99.2	97.5	99.9	101	99.3	104	93.7	–	–	–	–	–	105	96	99.9	88.1	101	> 10
C=CC(C)(O)CCC=C(C)C (stereo not drawn) [linalool]	> 10	> 10	–	> 10	0	0	0	–	0	110	99.2	99.2	93.7	99.2	101	104	96.3	102	98.7	103	95.7	97.4	95	97.9	–	–	–	–	–	95.5	102	96.5	100	95.2	> 10
CN(CCCN1c2ccccc2CCc2ccccc21)CC(=O)c1ccc(Cl)cc1 [lofepramine]	> 10	–	–	> 10	0	0	–	–	0	103	107	101	94.9	92	99	102	97.2	101	101	–	–	–	–	–	–	–	–	–	–	105	105	102	96.9	106	> 10
Nc1ccc2cc3ccc(N)cc3nc2c1 [proflavine-hemisulfate]	1.9	–	–	1.57	2.3	5.3	–	1.6	9.1	100	88.4	99	105	49.3	94.6	100	90.7	89.4	35.8	–	–	–	–	–	89.2	95.9	103	103	62.6	96.5	103	92.7	76.2	2	3.6
CN1CCCN=C1/C=C/c1cccs1 [pyrantel-pamoate]	> 10	> 10	–	> 10	0	0	0	–	0	93.3	94.8	98.8	96	100	107	99.9	96.4	101	99.4	99.6	96.9	99.1	95.3	101	–	–	–	–	–	97.4	106	103	104	92.6	> 10
C/C(=C\CNc1ncnc2[nH]cnc12)CO [zeatin]	> 10	> 10	–	> 10	0	0	0	–	0	94.1	104	88.1	92.5	101	95.7	99.4	97	100	107	96.8	99.4	95.4	98.9	102	–	–	–	–	–	94.7	92.9	108	102	110	> 10
